Data taken from US7329423B2, “Compositions comprising thylakoids useful in the modulation of inflammation process” (Purecell Technologies Inc., priority 2001, dated 2008).

Legend:
[1] = test system: TNBS-induced colonic damage in rat intestine; test: Potentiation of mesalamine in TNBS-stressed rat intestine (Experiment 11); type: in vivo; details: Wistar rats, mesalamine 57 mg/kg with or without extract 2 mg/kg in the intestinal lumen 24 and 48 h before TNBS
Description: Male Wistar rats (Charles River Laboratories, Montreal) were kept in individual cages, at 20° C. and 55% relative humidity with 12-h light/12-h dark cycle, in a facility that met the Canadian Council on Animal Care (C.C.A.C.) guidelines. The rats were subjected to a 24-hour starving period prior to inflammatory stress induction. Four groups of rats were treated in the following manner: • (Treatment-1) Non-stressed control (n=3); • (Treatment-2) 2,4,6-Trinitrobenzenesulfonic acid (inflammatory agent) in the intestinal lumen (n=3); • (Treatment-3) Mesalamine (5-aminosalicyclic acid; NSAID) (57 mg/kg) administered directly in the intestinal lumen 24 and 48 hours prior to administration of the stress agent (n=3) • (Treatment4) Thylakoid extract (0.05%) (2 mg/kg)+mesalamine (57 mg/kg) administered directly in the intestinal lumen 24 and 48 hours prior to administration of the stress agent (n=3). Twenty-four hours later, the rats were sacrificed and a 10 cm excision of the intestine was sampled.

[2] = test system: TPA-induced inflammation of mouse ears; test: Potentiation of budesonide in TPA-induced mouse ear inflammation (Experiment 10); type: in vivo; details: BALB/C mice, 24 h
Description: Mice (BALB/C) were kept in individual cages, at 20° C. and 55% relative humidity with 12-h light/12-h dark cycle, in a facility that met the Canadian Council on Animal Care (C.C.A.C.) guidelines. The animals were subjected to an 18-hour starving period prior to treatments. […] of mice were treated in the following manner: • (Treatment-1) No application of cream (n=3); • (Treatment-2) Neutral base cream (n=3); • (Treatment-3) Budesonide (0.1%) in neutral base cream (n=3); • (Treatment-4) Budesonide (0.01%) in neutral base cream (n=3); • (Treatment-5) Budesonide (0.01%)+thylakoid extract (0.05%) in neutral base cream (n=3). All treatments were applied 4 and 8 hours following the inflammatory stress (post-treatment) at a dose of 2 μl/cm^2. Animals were kept in the dark for the duration of the treatments. Prior to treatment, mouse ears were subjected to an inflammatory stress by a topical application of phorbol 12-myristate 13-acetate (TPA) (Sigma Chemicals Co.). 20 μL of TPA (0.2 μg/μL) in an acetone solution was applied (Griswold et al., 1998). The right ear of each mouse was treated with TPA whereas the left ear served as the unstressed control. After 24 hours, the mice were sacrificed and a punch of 6 mm in diameter of both the left and right ears was sampled. Ear punch thickness was measured by an electronic digital caliper 0.01 mm (Traceable).

Structure (SMILES)	macroscopic colonic damage score (scale 0-10) [1]	decrease of ear punch thickness ([2]; budesonide 0.01% in neutral base cream 4 and 8 h after TPA) [%]	decrease of ear punch thickness compared to the untreated control (Treatment-1) ([2]; budesonide 0.1% in neutral base cream 4 and 8 h after TPA) [%]
Nc1ccc(O)c(C(=O)O)c1 [mesalamine, 5-aminosalicyclic acid]	4.0	–	–
CCCC1O[C@@H]2C[C@H]3[C@@H]4CCC5=CC(=O)C=C[C@]5(C)[C@H]4[C@@H](O)C[C@]3(C)[C@]2(C(=O)CO)O1 (stereo partly drawn) [Budesonide, budesonide]	–	32.6	58.2
